Results from US9445998B2, “Pharmaceutical dosage forms comprising a low-solubility drug and a polymer” (Bend Research, Inc., priority 2004, dated 2016).
In brackets after ≈: the same amount, converted by molar mass. Counter-ions that a name gives are not always drawn. Like-named read-outs stand apart in the source and are kept apart here.

Columns and labels:
[1] = for solubility in phosphate buffered saline: pH 6.5; for maximum dissolved drug concentration: pH 6.5 PBS solution
Source text: It is known that some drugs may crystallize into one of several different crystal forms. Such crystal forms are often referred to as “polymorphs.” As used herein, “a high-energy crystalline form” means that the drug is in a crystal form which provides solubility improvement as described below.
By “amorphous” is meant simply that the drug is in a non-crystalline state. As used herein, the term “a major portion” of means that at least 60 wt % of the drug in the composition is in the amorphous form, rather than the crystalline form. […] Amounts of crystalline drug may be measured by Powder X-Ray Diffraction (PXRD), Scanning Electron Microscope (SEM) analysis, differential scanning calorimetry (DSC), or any other standard quantitative measurement.
An appropriate PBS solution is an aqueous solution comprising 20 mM Na2HPO4, 47 mM KH2PO4, 87 mM NaCl, and 0.2 mM KCl, adjusted to pH 6.5 with NaOH. An appropriate MFD solution is the same PBS solution wherein there is also present 7.3 mM sodium taurocholic acid and 1.4 mM of 1-palmitoyl-2-oleyl-sn-glycero-3-phosphocholine. Water is a preferred dissolution media for some fast precipitating salts. […] In such cases it may be preferred to use an unbuffered test medium such as distilled water as the dissolution medium.

[2] = type: physicochemical; settings: not told
Procedure: An Accurel® PP 1E microporous polypropylene membrane was obtained from Membrana GmbH (Wuppertal, Germany). The membrane was washed in isopropyl alcohol and rinsed in methanol in a sonicating bath for 1 minute at ambient temperature, and then allowed to air dry at ambient temperature. The feed side of the membrane was then plasma-treated to render it hydrophilic by placing a sample of the membrane in a plasma chamber. The atmosphere of the plasma chamber was saturated with water vapor at a pressure of 550 mtorr. A plasma was then generated using radio frequency (RF) power inductively coupled into the chamber via annular electrodes at a power setting of 50 watts for 45 seconds. The contact angle of a drop of water placed on the surface of the plasma-treated membrane was less than about 40°. The contact angle of a drop of water placed on the permeate side of the same membrane was greater than about 110°.
A permeate reservoir was formed by gluing a sample of the plasma-treated membrane to a glass tube having an inside diameter of about 1 inch (2.54 cm) using an epoxy-based glue (LOCTITE® E-30CL HYSOL® from Henkel Loctite Corp, Rocky Hill, Conn.). The feed-side of the membrane was oriented so that it was on the outside of the permeate reservoir, while the permeate-side of the membrane was oriented so that it was on the inside of the reservoir. The effective membrane area of the membrane on the permeate reservoir was about 4.9 cm^2. The permeate reservoir was placed into a glass feed reservoir. The feed reservoir was equipped with a magnetic stir bar and the reservoir was placed on a stir plate and the stir rate was set to 100 rpm during the test. The apparatus was placed into a chamber maintained at 37° C. for the duration of the test. Further details of the test apparatus and protocols are presented in co-pending U.S. Patent Application Ser. No. 60/557,897, entitled “Method and Device for Evaluation of Pharmaceutical Compositions,” filed Mar. 30, 2004, incorporated herein by reference.
To form the feed solution, a 1.429 mg (0.5 mgA) sample of CC-1 was weighed into a feed reservoir. (As used herein, “mgA” is milligrams of active drug, reported as the free base, non-salt form, non-hydrate drug molecule.) To this was added 5 mL of the MFD solution previously described, consisting of PBS solution containing 7.3 mM sodium taurocholic acid and 1.4 mM of 1-palmitoyl-2-oleyl-sn-glycero-3-phosphocholine (0.5% NaTC/POPC). […] The feed solution was mixed using a vortex mixer for 1 minute. Before the membrane contacted the feed solution, 5 mL of 60 wt % decanol in decane was placed into the permeate reservoir. Time zero in the test was when the membrane was placed in contact with the feed solution. A […] aliquot of the permeate solution was collected at the times indicated. Samples were then diluted in […] IPA and analyzed using HPLC.
The maximum flux of drug across the membrane (in units of μgA/cm^2-min) was determined by performing a least-squares fit to the data in Table 4 from 0 to 60 minutes to obtain the slope (CC-1: 0.26 μgA/mL-min; Control 1A: 0.13 μgA/mL-min; Control 1B: 0.07 μgA/mL-min), multiplying the slope by the permeate volume (5 mL), and dividing by the membrane area (4.9 cm^2).

Solubility in water = type: physicochemical; settings: expressed as the free base, hydrochloride monohydrate
Source text: An example of a drug having a crystalline highly soluble salt form is ziprasidone. Ziprasidone hydrochloride monohydrate has a solubility of about 10 μgA/mL (expressed as the free base) in water, whereas the free base form has a solubility of less than about 0.2 μgA/mL under the same conditions. Thus, crystalline ziprasidone hydrochloride is a solubility-improved form relative to the crystalline free base form of ziprasidone.

[3] = Microcentrifuge dissolution test in MFD solution; type: physicochemical; design: AUC: concentration or dose not given beside the values; settings: for Dissolved Ziprasidone Concentration / AUC: MFD solution pH 6.5, 37° C.; for Dissolved Ziprasidone Concentration: 200 μgA/mL if all dissolved
Procedure: A microcentrifuge dissolution test was performed to verify that ziprasidone hydrochloride monohydrate is a solubility-improved form of ziprasidone. For this test, a sufficient amount of ziprasidone hydrochloride monohydrate was added to a microcentrifuge test tube so that the concentration of ziprasidone would have been 200 μgA/mL, if all of the ziprasidone had dissolved. The tests were run in duplicate. The tubes were placed in a 37° C. temperature-controlled chamber, and 1.8 mL MFD solution at pH 6.5 and 290 mOsm/kg was added to each respective tube. The samples were quickly mixed using a vortex mixer for about 60 seconds. The samples were centrifuged at 13,000 G at 37° C. for 1 minute prior to collecting a sample. The resulting supernatant solution was then sampled and diluted 1:5 (by volume) with methanol. Samples were analyzed by high-performance liquid chromatography (HPLC) at a UV absorbance of 315 nm using a Zorbax RxC8 Reliance column and a mobile phase consisting of 55% (50 mM potassium dihydrogen phosphate, pH 6.5)/45% acetonitrile. Drug concentration was calculated by comparing UV absorbance of samples to the absorbance of drug standards. The contents of each tube were mixed on the vortex mixer and allowed to stand undisturbed at 37° C. until the next sample was taken. Samples were collected at 4, 10, 20, 40, 90, and 1200 minutes following administration to the MFD solution.
A similar test was performed with the crystalline ziprasidone free base as a control, and a sufficient amount of material was added so that the concentration of compound would have been 200 μgA/mL, if all of the ziprasidone had dissolved.
The concentrations of ziprasidone obtained in these tests were used to determine the maximum dissolved concentration of ziprasidone (“MDC90”) and the area under the concentration-versus-time curve (“AUC90”) during the initial ninety minutes.

O=C(N[C@@H](Cc1ccccc1)[C@@H](O)C(=O)N1C[C@@H](O)[C@@H](O)C1)c1cc2cc(Cl)ccc2[nH]1 [A1, 5-chloro-1H-indole-2-carboxylic acid [(1S)-benzyl-3-((3R,4S)-dihydroxypyrrolidin-1-yl)-(2R)-hydroxy-3-oxpropyl]amide]
solubility in phosphate buffered saline [1]: about 480 μg/mL

O=C(N[C@@H](Cc1ccccc1)[C@@H](O)C(=O)N1C[C@@H](O)[C@@H](O)C1)c1cc2cc(Cl)ccc2[nH]1 [A2, 5-chloro-1H-indole-2-carboxylic acid [(1S)-benzyl-3-((3R,4S)-dihydroxypyrrolidin-1-yl)-(2R)-hydroxy-3-oxpropyl]amide]
solubility in phosphate buffered saline [1]: 87 µg/mL (≈ 190 µM)
maximum dissolved drug concentration [1]: 87 µg/mL

O=C1Cc2cc(CCN3CCN(c4nsc5ccccc45)CC3)c(Cl)cc2N1 [Control 1A, ziprasidone hydrochloride monohydrate]
Ziprasidone Concentration in Permeate ([2]; 0 min, 100 μgA/mL, pH 6.5): 0.5 μgA/mL
Maximum Flux of Ziprasidone ([2]; 100 μgA/mL, pH 6.5): 0.13 μgA/cm^2-min
Ziprasidone Concentration in Permeate ([2]; 20 min, 100 μgA/mL, pH 6.5): 3.8 μgA/mL
Ziprasidone Concentration in Permeate ([2]; 40 min, 100 μgA/mL, pH 6.5): 6.0 μgA/mL
Ziprasidone Concentration in Permeate ([2]; 60 min, 100 μgA/mL, pH 6.5): 8.4 μgA/mL
Ziprasidone Concentration in Permeate ([2]; 90 min, 100 μgA/mL, pH 6.5): 12.4 μgA/mL
Ziprasidone Concentration in Permeate ([2]; 120 min, 100 μgA/mL, pH 6.5): 15.3 μgA/mL
Ziprasidone Concentration in Permeate ([2]; 180 min, 100 μgA/mL, pH 6.5): 20.6 μgA/mL
Ziprasidone Concentration in Permeate ([2]; 240 min, 100 μgA/mL, pH 6.5): 25.2 μgA/mL
Ziprasidone Concentration in Permeate ([2]; 360 min, 100 μgA/mL, pH 6.5): 30.6 μgA/mL

O=C1Cc2cc(CCN3CCN(c4nsc5ccccc45)CC3)c(Cl)cc2N1 [Ziprasidone hydrochloride monohydrate, ziprasidone hydrochloride monohydrate]
solubility in water (Solubility in water): about 10 μgA/mL
AUC90 relative to that provided by the free base ([3]; MFD solution): 14 fold
MDC90 relative to that provided by the free base ([3]; MFD solution): 11 fold
Dissolved Ziprasidone Concentration ([3]; time 0 min): 0 μgA/mL
Dissolved Ziprasidone Concentration ([3]; time 4 min, hydrochloride monohydrate): 14 μgA/mL
Dissolved Ziprasidone Concentration ([3]; time 10 min, hydrochloride monohydrate): 15 μgA/mL
Dissolved Ziprasidone Concentration ([3]; time 20 min, hydrochloride monohydrate): 20 μgA/mL
Dissolved Ziprasidone Concentration ([3]; time 40 min, hydrochloride monohydrate): 22 μgA/mL
Dissolved Ziprasidone Concentration ([3]; time 90 min, hydrochloride monohydrate): 18 μgA/mL
Dissolved Ziprasidone Concentration ([3]; time 1200 min, hydrochloride monohydrate): 9 μgA/mL
AUC ([3]; up to time 0 min): 0 min-μgA/mL
AUC ([3]; up to time 4 min, hydrochloride monohydrate): 30 min-μgA/mL
AUC ([3]; up to time 10 min, hydrochloride monohydrate): 110 min-μgA/mL
AUC ([3]; up to time 20 min, hydrochloride monohydrate): 280 min-μgA/mL
AUC ([3]; up to time 40 min, hydrochloride monohydrate): 700 min-μgA/mL
AUC ([3]; up to time 90 min, hydrochloride monohydrate): 1,700 min-μgA/mL
AUC ([3]; up to time 1200 min, hydrochloride monohydrate): 16,400 min-μgA/mL
AUC90 ([3]; area under the concentration-versus-time curve during the initial ninety minutes, MFD solution, hydrochloride monohydrate): 1700 min·µgA/mL
MDC90 ([3]; maximum dissolved concentration during the initial ninety minutes, MFD solution, hydrochloride monohydrate): 22 µgA/mL
Maximum Flux of Ziprasidone [2]: 0.16 μgA/cm^2-min
Concentration (drug in the permeate solution) ([2]; 0 min, 100 μgA/mL, pH 6.5): 0.5 μgA/mL
Concentration (drug in the permeate solution) ([2]; 20 min, 100 μgA/mL, pH 6.5): 5.2 μgA/mL
Concentration (drug in the permeate solution) ([2]; 40 min, 100 μgA/mL, pH 6.5): 8.1 μgA/mL
Concentration (drug in the permeate solution) ([2]; 60 min, 100 μgA/mL, pH 6.5): 10.0 μgA/mL
Concentration (drug in the permeate solution) ([2]; 90 min, 100 μgA/mL, pH 6.5): 11.4 μgA/mL
Concentration (drug in the permeate solution) ([2]; 120 min, 100 μgA/mL, pH 6.5): 12.9 μgA/mL
Concentration (drug in the permeate solution) ([2]; 180 min, 100 μgA/mL, pH 6.5): 18.1 μgA/mL
Concentration (drug in the permeate solution) ([2]; 240 min, 100 μgA/mL, pH 6.5): 20.9 μgA/mL
Concentration (drug in the permeate solution) ([2]; 360 min, 100 μgA/mL, pH 6.5): 22.6 μgA/mL

O=C(N[C@@H](Cc1ccccc1)[C@@H](O)C(=O)N1C[C@@H](O)[C@@H](O)C1)c1cc2cc(Cl)ccc2[nH]1 [amorphous form, 5-chloro-1H-indole-2-carboxylic acid [(1S)-benzyl-3-((3R,4S)-dihydroxypyrrolidin-1-yl-)-(2R)-hydroxy-3-oxypropyl]amide]
maximum dissolved drug concentration [1]: about 600 μg/mL

ziprasidone tosylate [Control 3]
Maximum Flux of Ziprasidone [2]: 0.04 μg/cm^2-min
